According to patent US20240043420A1, “7-AZAINDOLE COMPOUNDS FOR INHIBITION OF BCR-ABL TYROSINE KINASES” (EnLiven Therapeutics, Inc., priority 2020, published 2024):
Values belong to the compound of their own block, whether it stands above or below them.

Key:
[1] = tested on: K562 cells; assay: K562 cell proliferation assay (CellTiter-Glo); format: cell-based; conditions: Homo sapiens, K562, 72 h, CellTiter-Glo viability, read-out: Cell Line (IC50, nM) K562
Description: (§1) K562 and HL60 cells, cultured in Iscove's Modified Dulbecco's Media (IMDM) supplemented with 10% FBS, were harvested at 50-80% confluency and plated at 2,000 cells per well (K562) or 1,500 cells per well (HL60) in 384-well tissue culture plates. A subset of wells contained media only (low control, LC). Compounds were serially diluted in DMSO. 40 nL of compound or DMSO only (high control, HC) were added to each well using an Echo 550 liquid handler (Labcyte). The plates were placed in a 37° C. incubator with 5% CO2 for 72 hours. Cell viability was measured using a CellTiter-Glo luminescent cell viability assay (Promega), which allows for relative quantification of metabolically active cells by luminescence-based measurements of intracellular ATP concentrations. Briefly, plates were removed from the incubator and equilibrated for 15 minutes at room temperature prior to the addition of 40 μL of CellTiter-Glo reagent. Plates were then incubated for 30 minutes at room temperature. Luminescence was measured using an EnSpire plate reader (Perkin Elmer). As noted above, luminescence values from wells with DMSO only or media without cells were used as high and low controls (HC and LC), respectively. Normalized percent viability was calculated as follows: percent viability=100×(Lumsample−LumLC)/(LumHC−LumLC).

[2] = tested on: HL60 cells; assay: HL60 cell proliferation assay (CellTiter-Glo); format: cell-based; conditions: Homo sapiens, HL-60, 72 h, CellTiter-Glo viability, read-out: Cell Line (IC50, nM) HL60
Description: as §1

[3] = molecular target: T1, ABL1 (Homo sapiens, UniProt P00519); assay: Luminescence-based ABL kinase assay (ADP-Glo, 300 μM ATP); format: biochemical
T1 construct: purchased Carna Biosciences
Method in brief: (§2)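 Buffer: 50 mM HEPES pH 7.5, 10 mM MgCl2, 1 mM EGTA, 2 mM DTT, 0.05% BSA. Compound preincubated 30 min at RT with kinase (3.325 nM in enzyme solution), then started with a Peptide 2 (6 μM) and ATP (1.2 mM) solution, both stock levels; 90 min at RT.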

[4] = molecular target: ABL1 (T315I) (Homo sapiens, UniProt P00519, T315I); assay: Luminescence-based ABL kinase assay (ADP-Glo, 300 μM ATP), T315I mutant; format: biochemical
Method in brief: as §2

SMILES: COc1ccc(F)cc1-c1n[nH]c2nc(NC(=O)NCCN3CCN(C)CC3)ccc12 [Compound 79, 3-[3-(5-fluoro-2-methoxyphenyl)-1H-pyrazolo[3,4-b]pyridin-6-yl]-1-[2-(4-methylpiperazin-1-yl)ethyl]urea]
IC50 [1]: 719 nM
IC50 [2]: > 10000 nM
IC50 [3]: 143 nM
IC50 [4]: 108 nM

SMILES: COc1c(-c2n[nH]c3nc(NC(=O)[C@@H]4C[C@@H]4F)ccc23)ccc2[nH]cnc12 [Compound 90, (1S,2S)-2-fluoro-N-[3-(4-methoxy-1H-1,3-benzodiazol-5-yl)-1H-pyrazolo[3,4-b]pyridin-6-yl]cyclopropane-1-carboxamide]
IC50 [1]: 1100 nM
IC50 [2]: > 10000 nM
IC50 [3]: 21.7 nM
IC50 [4]: 15 nM

SMILES: COc1ccccc1-c1c[nH]c2nc(NC(=O)[C@H]3C[C@H]3CO)ccc12 [Compound 91, (1S,2R)-2-(hydroxymethyl)-N-[3-(2-methoxyphenyl)-1H-pyrrolo[2,3-b]pyridin-6-yl]cyclopropane-1-carboxamide]
IC50 [1]: 1080 nM
IC50 [2]: > 10000 nM
IC50 [3]: 166 nM
IC50 [4]: 24.6 nM

SMILES: O=C(Nc1ccc2c(-c3ccccc3OC3CC3)n[nH]c2n1)[C@@H]1C[C@@H]1F [Compound 94, (1S,2S)—N-(3-(2-cyclopropoxyphenyl)-1H-pyrazolo[3,4-b]pyridin-6-yl)-2-fluorocyclopropane-1-carboxamide]
IC50 [1]: 55.6 nM
IC50 [2]: 7580 nM
IC50 [3]: 10.8 nM
IC50 [4]: 6.36 nM

SMILES: [2H]C([2H])([2H])Oc1ccccc1-c1n[nH]c2nc(NC(=O)[C@@H]3C[C@@H]3F)ccc12 [Compound 101, (1S,2S)-2-fluoro-N-(3-(2-(methoxy-d3)phenyl)-1H-pyrazolo[3,4-b]pyridin-6-yl)cyclopropane-1-carboxamide]
IC50 [1]: 94.2 nM
IC50 [2]: > 10000 nM
IC50 [3]: 16.4 nM
IC50 [4]: 15.3 nM

SMILES: CCNC(=O)Nc1ccc2c(-c3ccccc3OC)c[nH]c2n1 [Compound 103, 3-ethyl-1-[3-(2-methoxyphenyl)-1H-pyrrolo[2,3-b]pyridin-6-yl]urea]
IC50 [1]: 751 nM
IC50 [2]: > 10000 nM
IC50 [3]: 99.2 nM
IC50 [4]: 32.5 nM

SMILES: CCN1CCN(CCNC(=O)Nc2ccc3c(-c4ccccc4OC)c[nH]c3n2)CC1 [Compound 109, 1-[2-(4-ethylpiperazin-1-yl)ethyl]-3-[3-(2-methoxyphenyl)-1H-pyrrolo[2,3-b]pyridin-6-yl]urea]
IC50 [1]: 278 nM
IC50 [2]: > 10000 nM
IC50 [3]: 39 nM
IC50 [4]: 7.08 nM

SMILES: COc1ccccc1-c1c[nH]c2nc(NC(=O)NCCC3CCN(C4COC4)CC3)ccc12 [Compound 110, 3-[3-(2-methoxyphenyl)-1H-pyrrolo[2,3-b]pyridin-6-yl]-1-[2-[1-(oxetan-3-yl)piperidin-4-yl]ethyl]urea]
IC50 [1]: 382 nM
IC50 [2]: > 10000 nM
IC50 [3]: 74.8 nM
IC50 [4]: 18.2 nM

SMILES: COc1nccc(C)c1-c1n[nH]c2nc(NC(=O)[C@@H]3C[C@@H]3F)ccc12 [Compound 112, (1S,2S)-2-fluoro-N-[3-(2-methoxy-4-methylpyridin-3-yl)-1H-pyrazolo[3,4-b]pyridin-6-yl]cyclopropane-1-carboxamide]
IC50 [1]: 1860 nM
IC50 [2]: > 10000 nM
IC50 [3]: 271 nM
IC50 [4]: 157 nM

More lines, now with the values ahead:

IC50 [1]: 96.2 nM
IC50 [2]: > 10000 nM
IC50 [3]: 12.2 nM
IC50 [4]: 12.9 nM
SMILES: COc1c(-c2c[nH]c3nc(NC(=O)[C@@H]4C[C@@H]4F)ccc23)ccc2cn[nH]c12 [Compound 81, (1S,2S)-2-fluoro-N-(3-(7-methoxy-1H-indazol-6-yl)-1H-pyrrolo[2,3-b]pyridin-6-yl)cyclopropane-1-carboxamide]

IC50 [1]: 48.8 nM
IC50 [2]: > 10000 nM
IC50 [3]: 1.52 nM
IC50 [4]: 1.74 nM
SMILES: COc1nc2[nH]cnc2cc1-c1c[nH]c2nc(NC(=O)[C@@H]3C[C@@H]3F)ccc12 [Compound 83, (1S,2S)-2-fluoro-N-(3-[5-methoxy-3H-imidazo[4,5-b]pyridin-6-yl]-1H-pyrrolo[2,3-b]pyridin-6-yl)cyclopropane-1-carboxamide]

IC50 [1]: 150 nM
IC50 [2]: > 10000 nM
IC50 [3]: 37 nM
IC50 [4]: 14.9 nM
SMILES: COc1cc2sncc2cc1-c1c[nH]c2nc(NC(=O)[C@@H]3C[C@@H]3F)ccc12 [Compound 84, (1S,2S)-2-fluoro-N-[3-(6-methoxy-1,2-benzothiazol-5-yl)-1H-pyrrolo[2,3-b]pyridin-6-yl]cyclopropane-1-carboxamide]

IC50 [1]: 46 nM
IC50 [2]: 7250 nM
IC50 [3]: 5.34 nM
IC50 [4]: 27.8 nM
SMILES: COc1cc2scnc2cc1-c1c[nH]c2nc(NC(=O)[C@@H]3C[C@@H]3F)ccc12 [Compound 85, (1S,2S)-2-fluoro-N-[3-(6-methoxy-1,3-benzothiazol-5-yl)-1H-pyrrolo[2,3-b]pyridin-6-yl]cyclopropane-1-carboxamide]

IC50 [1]: 94.1 nM
IC50 [2]: > 10000 nM
IC50 [3]: 9.54 nM
IC50 [4]: 6.59 nM
SMILES: COc1cc2ncoc2cc1-c1c[nH]c2nc(NC(=O)[C@@H]3C[C@@H]3F)ccc12 [Compound 87, (1S,2S)-2-fluoro-N-(3-(5-methoxybenzo[d]oxazol-6-yl)-1H-pyrrolo[2,3-b]pyridin-6-yl)cyclopropane-1-carboxamide]

IC50 [1]: 84.1 nM
IC50 [2]: > 10000 nM
IC50 [3]: 18.6 nM
IC50 [4]: 30.9 nM
SMILES: COc1cc2ocnc2cc1-c1c[nH]c2nc(NC(=O)[C@@H]3C[C@@H]3F)ccc12 [Compound 88, (1S,2S)-2-fluoro-N-(3-(6-methoxybenzo[d]oxazol-5-yl)-1H-pyrrolo[2,3-b]pyridin-6-yl)cyclopropane-1-carboxamide]

IC50 [1]: 248 nM
IC50 [2]: > 10000 nM
IC50 [3]: 39.4 nM
IC50 [4]: 27.3 nM
SMILES: COc1ncc(F)cc1-c1c[nH]c2nc(NC(=O)[C@@H]3C[C@@H]3F)ccc12 [Compound 92, (1S,2S)-2-fluoro-N-[3-(5-fluoro-2-methoxypyridin-3-yl)-1H-pyrrolo[2,3-b]pyridin-6-yl]cyclopropane-1-carboxamide]

IC50 [1]: 862 nM
IC50 [2]: > 10000 nM
IC50 [3]: 8.87 nM
IC50 [4]: 8.93 nM
SMILES: COc1cc2[nH]nnc2cc1-c1c[nH]c2nc(NC(=O)[C@@H]3C[C@@H]3F)ccc12 [Compound 96, (1S,2S)-2-fluoro-N-[3-(6-methoxy-1H-1,2,3-benzotriazol-5-yl)-1H-pyrrolo[2,3-b]pyridin-6-yl]cyclopropane-1-carboxamide]

IC50 [1]: 129 nM
IC50 [2]: > 10000 nM
IC50 [3]: 14.9 nM
IC50 [4]: 25.7 nM
SMILES: COc1cc(F)ccc1-c1n[nH]c2nc(NC(=O)[C@@H]3C[C@@H]3F)ccc12 [Compound 99, (1S,2S)-2-fluoro-N-[3-(4-fluoro-2-methoxyphenyl)-1H-pyrazolo[3,4-b]pyridin-6-yl]cyclopropane-1-carboxamide]

IC50 [1]: 48 nM
IC50 [2]: > 10000 nM
IC50 [3]: 12.5 nM
IC50 [4]: 17.8 nM
SMILES: COc1ncnc(OC)c1-c1c[nH]c2nc(NC(=O)[C@@H]3C[C@@H]3F)ccc12 [Compound 102, (1S,2S)—N-[3-(4,6-dimethoxypyrimidin-5-yl)-1H-pyrrolo[2,3-b]pyridin-6-yl]-2-fluorocyclopropane-1-carboxamide]

IC50 [1]: 321 nM
IC50 [2]: > 10000 nM
IC50 [3]: 14.3 nM
IC50 [4]: 151 nM
SMILES: COc1cc2ncnn2cc1-c1c[nH]c2nc(NC(=O)[C@@H]3C[C@@H]3F)ccc12 [Compound 111, (1S,2S)-2-fluoro-N-(3-(7-methoxy-[1,2,4]triazolo[1,5-a]pyridin-6-yl)-1H-pyrrolo[2,3-b]pyridin-6-yl)cyclopropane-1-carboxamide]

IC50 [1]: 174 nM
IC50 [2]: > 10000 nM
IC50 [3]: 20.9 nM
IC50 [4]: 15.9 nM
SMILES: COc1nccc(C)c1-c1c[nH]c2nc(NC(=O)[C@@H]3C[C@@H]3F)ccc12 [Compound 113, (1S,2S)-2-fluoro-N-[3-(2-methoxy-4-methylpyridin-3-yl)-1H-pyrrolo[2,3-b]pyridin-6-yl]cyclopropane-1-carboxamide]

IC50 [1]: 382 nM
IC50 [2]: > 10000 nM
IC50 [3]: 124 nM
IC50 [4]: 151 nM
SMILES: COc1c(-c2c[nH]c3nc(NC(=O)[C@@H]4C[C@@H]4F)ccc23)ccn2ncnc12 [Compound 115, (1S,2S)-2-fluoro-N-(3-[8-methoxy-[1,2,4]triazolo[1,5-a]pyridin-7-yl]-1H-pyrrolo[2,3-b]pyridin-6-yl)cyclopropane-1-carboxamide]

IC50 [1]: 24.4 nM
IC50 [2]: > 10000 nM
IC50 [3]: 3.73 nM
IC50 [4]: 1.48 nM
SMILES: COc1cccc(OC)c1-c1c[nH]c2nc(NC(=O)[C@@H]3C[C@@H]3F)ccc12 [Compound 118, (1S,2S)—N-[3-(2,6-dimethoxyphenyl)-1H-pyrrolo[2,3-b]pyridin-6-yl]-2-fluorocyclopropane-1-carboxamide]
